Test results as given in US20230075856A1, “CYCLIC SULFAMIDE COMPOUNDS FOR TREATMENT OF HBV” (Assembly Biosciences, Inc., priority 2018, published 2023).
pEC50: −log10 of the molar value.

The compounds below were run on HBV viral load production from HepAD38 cells (assay: Viral production from HepAD38 cells: viral load in supernatant by qPCR of the HBV core sequence). Conditions: 5 days incubation, qPCR of supernatant HBV DNA vs DMSO control, read-out: viral load lowering EC50 (Activity).
Assay type: cell-based
Summary of the method: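 Viral load was measured by qPCR of the HBV core region in supernatant, quantified against DNA standards and compared with DMSO wells. Cells (50,000/well, tetracycline withdrawn, 2% FBS) received compound from 10 μM final for 5 days; EC50 from four-parameter nonlinear regression.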

`CN1C(C(=O)Nc2ccc(F)c(Cl)c2)CC(C(=O)NCc2cccc(Cl)c2)NS1(=O)=O` (single isomer, unassigned) [Compound 730-ISOMER-B, N3-(3-chloro-4-fluorophenyl)-N5-[(3-chlorophenyl)methyl]-2-methyl-1,1-dioxo-1,2,6-thiadiazinane-3,5-dicarboxamide] and `Cc1c(CNC(=O)C2CC(C(=O)Nc3ccc(F)c(Cl)c3)N(C)S(=O)(=O)N2)cnn1C` (single isomer, unassigned) [Compound 740-ISOMER-B, N3-(3-chloro-4-fluoro-phenyl)-N5-[(1,5-dimethylpyrazol-4-yl)methyl]-2-methyl-1,1-dioxo-1,2,6-thiadiazinane-3,5-dicarboxamide] fall in the same range of pEC50: 5.00 to 7.00 for the first, 5.00 to 7.00 for the second.

Compared with “N3-(3-chloro-4-fluoro-phenyl)-N5-[(S)-(2-chlorothiazol-5-yl)-phenyl-methyl]-2-methyl-1,1-dioxo-1,2,6-thiadiazinane-3,5- [1066-ISOMER-B]”, `COc1cccc(CNC(=O)C2CC(C(=O)Nc3ccc(F)c(Cl)c3)N(C)S(=O)(=O)N2)c1` (single isomer, unassigned) [Compound 721-ISOMER-B, N3-(3-chloro-4-fluoro-phenyl)-N5-[(3-methoxyphenyl)methyl]-2-methyl-1,1-dioxo-1,2,6-thiadiazinane-3,5-dicarboxamide] is lower in pEC50: over 7.30 for the first, 5.00 to 7.00 for the second.

First: CCc1nc(CNC(=O)C2CC(C(=O)Nc3ccc(F)c(Cl)c3)N(C)S(=O)(=O)N2)cs1 (single isomer, unassigned) [Compound 742-ISOMER-B, N3-(3-chloro-4-fluoro-phenyl)-N5-[(2-ethylthiazol-4-yl)methyl]-2-methyl-1,1-dioxo-1,2,6-thiadiazinane-3,5-dicarboxamide]
Second: CN(C)CCCCc1cnn(-c2ncc(CNC(=O)C3CC(C(=O)Nc4ccc(F)c(Cl)c4)N(C)S(=O)(=O)N3)s2)c1 (single isomer, unassigned) [1197-ISOMER-B, N3-(3-chloro-4-fluoro-phenyl)-N5-[[2-[4-[4-(dimethylamino)butyl]pyrazol-1-yl]thiazol-5-yl]methyl]-2-methyl-1,1-dioxo-1,2,6-thiadiazinane-3,5-dicarboxamide]
The pEC50 of the first is higher: over 7.30 for the first, 7.00 to 7.30 for the second. The first is the more potent here.

First: CN1C(C(=O)Nc2ccc(F)c(Cl)c2)CC(C(=O)NCc2cnc(-c3cccc(Cl)c3)s2)NS1(=O)=O (single isomer, unassigned; isomer-b) [Compound 913-ISOMER-B, N3-(3-chloro-4-fluoro-phenyl)-N5-[[2-(3-chlorophenyl)thiazol-5-yl]methyl]-2-methyl-1,1-dioxo-1,2,-thiadiazinane-3,5-dicarboxamide]
Second: CN1C(C(=O)Nc2ccc(F)c(Cl)c2)CC(C(=O)NCc2nn(-c3ccccc3)c3ccccc23)NS1(=O)=O (single isomer, unassigned) [1072-ISOMER-B, N3-(3-chloro-4-fluoro-phenyl)-2-methyl-1,1-dioxo-N5-[(1-phenylindazol-3-yl)methyl]-1,2,6-thiadiazinane-3,5-dicarboxamide]
The pEC50 of the first is higher: over 7.30 for the first, 5.00 to 7.00 for the second. The first is the more potent here.

`CN1C(C(=O)Nc2ccc(F)c(Cl)c2)CC(C(=O)NCc2nn(-c3ccccc3F)c3ccccc23)NS1(=O)=O` (single isomer, unassigned) [1086-ISOMER-B, N3-(3-chloro-4-fluoro-phenyl)-N5-[[1-(2-fluorophenyl)indazol-3-yl]methyl]-2-methyl-1,1-dioxo-1,2,6-thiadiazinane-3,5-dicarboxamide] and `CN1C(C(=O)Nc2ccc(F)c(Cl)c2)CC(C(=O)NCc2cn(-c3ccccc3)cn2)NS1(=O)=O` (single isomer, unassigned) [1145-ISOMER-B, N3-(3-chloro-4-fluoro-phenyl)-2-methyl-1,1-dioxo-N5-[(1-phenylimidazol-4-yl)methyl]-1,2,6-thiadiazinane-3,5-dicarboxamide] fall in the same range of pEC50: 5.00 to 7.00 for the first, 5.00 to 7.00 for the second.

Compared with `CN1C(C(=O)Nc2ccc(F)c(Cl)c2)CC(C(=O)NCc2cnc(-c3ccc(O)cc3)s2)NS1(=O)=O` (single isomer, unassigned; isomer-a) [Compound 924-ISOMER-A, N3-(3-chloro-4-fluroo-phenyl)-N5-[[2-(4-hydroxyphenyl)thiazol-5-yl]methyl]-2-methyl-1,1-dioxo-1,2,6-thiadiazinane-3,5-dicarboxamide], `CN1C(C(=O)Nc2ccc(F)c(Cl)c2)CC(C(=O)NCc2ccccc2-n2ccnc2)NS1(=O)=O` (single isomer, unassigned; isomer-a) [Compound 910-ISOMER-A, N3-(3-chloro-4-fluoro-phenyl)-N5-[(2-imidaozl-1-ylphenyl)methyl]-2-methyl-1,1-dioxo-1,2,6-thiadiazinane-3,5-dicarboxamide] is higher in pEC50: 5.00 to 7.00 for the first, over 7.30 for the second.

`C[C@@H](NC(=O)C1CC(C(=O)Nc2ccc(F)c(Cl)c2)N(C)S(=O)(=O)N1)c1ccccc1` (single isomer, unassigned) [Compound 719-ISOMER-B] and `CN1C(C(=O)Nc2ccc(F)c(Cl)c2)CC(C(=O)NCc2ccc(Cl)cc2)NS1(=O)=O` (single isomer, unassigned) [Compound 729-ISOMER-B, N3-(3-chloro-4-fluoro-phenyl)-N5-[(4-chlorophenyl)methyl]-2-methyl-1,1-dioxo-1,2,6-thiadiazinane-3,5-dicarboxamide] fall in the same range of pEC50: 5.00 to 7.00 for the first, 5.00 to 7.00 for the second.

Work on `Cc1c(CNC(=O)C2CC(C(=O)Nc3ccc(F)c(Cl)c3)N(C)S(=O)(=O)N2)nnn1-c1ccccc1` (single isomer, unassigned; isomer-b) [1148-ISOMER-B, N3-(3-chloro-4-fluoro-phenyl)-2-methyl-N5-[(5-methyl-1-phenyl-triazol-4-yl)methyl]-1,1-dioxo-1,2,6-thiadiazinane-3,5-dicarboxamide] yielded a pEC50 of 5.00 to 7.00.

Same assay, conditions: Hepatitis B virus, HePAD38, 120 h, 5 days incubation, qPCR of supernatant HBV DNA vs DMSO control, read-out: viral load lowering EC50 (Activity)

`CN1C(C(=O)Nc2ccc(F)c(Cl)c2)CC(C(=O)NCc2cnc(-c3ccc(C#CCCO)cc3)s2)NS1(=O)=O` (stereo not drawn) [Compound 926] and `CN(C)CC(C)(C)COc1ccc(-c2ncc(CNC(=O)C3CC(C(=O)Nc4ccc(F)c(Cl)c4)N(C)S(=O)(=O)N3)s2)cc1` (stereo not drawn) [Compound 943] cannot be ordered by pEC50: over 7.30 for the first, over 7.30 for the second.

`CN1C(C(=O)Nc2ccc(F)c(Cl)c2)CC(C(=O)NCc2csc(-c3ccc(OCCN4CCCCC4)cc3)n2)NS1(=O)=O` (stereo not drawn) [Compound 957] and `Cc1cccc(CNC(=O)C2CC(C(=O)Nc3ccc(F)c(Cl)c3)N(C)S(=O)(=O)N2)n1` (single isomer, unassigned) [Compound 716-ISOMER-A, N3-(3-chloro-4-fluoro-phenyl)-2-methyl-N5-[(6-methyl-2-pyridyl)methyl]-1,1-dioxo-1,2,6-thiadiazinane-3,5-dicarboxamide] cannot be ordered by pEC50: over 7.30 for the first, over 7.30 for the second.

Compared with `Cc1cnc(CNC(=O)C2CC(C(=O)Nc3ccc(F)c(Cl)c3)N(C)S(=O)(=O)N2)s1` (single isomer, unassigned) [Compound 687-ISOMER-A, N3-(3-chloro-4-fluoro-phenyl)-2-methyl-N5-[(5-methylthiazol-2-yl)methyl]-1,1-dioxo-1,2,6-thiadiazinane-3,5-dicarboxamide], `Cc1ncc(CNC(=O)C2CC(C(=O)Nc3ccc(F)c(Cl)c3)N(C)S(=O)(=O)N2)s1` (stereo not drawn) [Compound 495] is higher in pEC50: 5.00 to 7.00 for the first, over 7.30 for the second.

Compared with `CN1C(C(=O)Nc2ccc(F)c(Cl)c2)CC(C(=O)NCc2nc3ccccc3s2)NS1(=O)=O` (single isomer, unassigned) [Compound 689-ISOMER-A, N5-(1,3-benzothiazol-2-ylmethyl)-N3-(3-chloro-4-fluoro-phenyl)-2-methyl-1,1-dioxo-1,2,6-thiadiazinane-3,5-dicarboxamide], `COc1ccc2nc(CNC(=O)C3CC(C(=O)Nc4ccc(F)c(Cl)c4)N(C)S(=O)(=O)N3)sc2c1` (stereo not drawn) [Compound 1011] is higher in pEC50: 5.00 to 7.00 for the first, over 7.30 for the second. The second is the more potent here.

`CN1C(C(=O)Nc2ccc(F)c(Cl)c2)CC(C(=O)NC2CCN(C(=O)OCCN3CCCCC3)CC2)NS1(=O)=O` (stereo not drawn) [Compound 963] and `CN1C(C(=O)Nc2ccc(F)c(Cl)c2)CC(C(=O)NC2CCN(C(=O)OCc3ccccc3)CC2)NS1(=O)=O` (stereo not drawn) [Compound 852] fall in the same range of pEC50: 5.00 to 7.00 for the first, 5.00 to 7.00 for the second.

`CN1C(C(=O)Nc2ccc(F)c(Cl)c2)CC(C(=O)NCc2ccccc2)NS1(=O)=O` (stereo not drawn) [Compound 718] and `Cc1cnn(-c2ccccc2)c1CNC(=O)C1CC(C(=O)Nc2ccc(F)c(Cl)c2)N(C)S(=O)(=O)N1` (stereo not drawn) [Compound 1104] cannot be ordered by pEC50: over 7.30 for the first, over 7.30 for the second.

First: CN1C(C(=O)Nc2ccc(F)c(Cl)c2)CC(C(=O)NCc2ccccc2N2CCOCC2)NS1(=O)=O (stereo not drawn) [Compound 907]
Second: Cc1cn(-c2ccccc2)nc1CNC(=O)C1CC(C(=O)Nc2ccc(F)c(Cl)c2)N(C)S(=O)(=O)N1 (single isomer, unassigned) [1057-ISOMER-A, N3-(3-chloro-4-fluoro-phenyl)-2-methyl-N5-[(4-methyl-1-phenyl-pyrazol-3-yl)methyl]-1,1-dioxo-1,2,6-thiadiazinane-3,5-dicarboxamide]
The pEC50 of the first is lower: 7.00 to 7.30 for the first, over 7.30 for the second.

First: COc1cccc(CNC(=O)C2CC(C(=O)Nc3ccc(F)c(C#N)c3)N(C)S(=O)(=O)N2)c1 (stereo not drawn) [Compound 835]
Second: Cc1nc(-c2ccccc2Cl)sc1CNC(=O)C1CC(C(=O)Nc2ccc(F)c(Cl)c2)N(C)S(=O)(=O)N1 (stereo not drawn) [Compound 1015]
The pEC50 of the first is lower: 7.00 to 7.30 for the first, over 7.30 for the second. The second is the more potent here.

First: CN1C(C(=O)Nc2ccc(F)c(Cl)c2)CC(C(=O)Nc2ccc(-c3ccccc3)cc2)NS1(=O)=O (stereo not drawn) [Compound 711]
Second: CN1C(C(=O)Nc2ccc(F)c(Cl)c2)CC(C(=O)NC2CCOCC2)NS1(=O)=O (stereo not drawn) [Compound 738]
The pEC50 of the first is lower: 5.00 to 7.00 for the first, 7.00 to 7.30 for the second.

`CN1C(C(=O)N(Cc2cnc(-c3cscn3)s2)c2ccc(F)c(Cl)c2)CC(C(N)=O)NS1(=O)=O` (single isomer, unassigned) [Compound 929-ISOMER-A, N3-(3-chloro-4-fluoro-phenyl)-2-methyl-1,1-dioxo-N-[(2-thiazol-4-ylthiazol-5-yl)methyl]-1,2,6-thiadiazinane-3,5-dicarboxamide] and `CN1C(C(=O)Nc2ccc(F)c(Cl)c2)CC(C(=O)NCc2cnc(C3=CCC(C)(C)C3)s2)NS1(=O)=O` (stereo not drawn) [Compound 1205] fall in the same range of pEC50: 5.00 to 7.00 for the first, 5.00 to 7.00 for the second.

In the case of `CN1C(C(=O)Nc2ccc(F)c(Cl)c2)CC(C(=O)NC2CCN(c3ccnc(C#N)c3)CC2)NS1(=O)=O` (stereo not drawn) [Compound 1089], the pEC50 was over 7.30.
